Values joined by “and” are separate entries in the source; they are usually repeats but may differ in a detail not shown here. Equal values may be shown once.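 Assay format: 96-well plates, 48-hour exposure. Abbreviation: GI50, concentration required for 50% inhibition of growth. TGI is the concentration that stops growth completely.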
Legend:
Experiment in all cases: inhibition of tumour cell growth, NCI panel, 48 h
OVCAR-5 ovarian = test system: OVCAR-5 ovarian
T-47D breast = test system: T-47D breast
COLO 205 colon = test system: COLO 205 colon
HOP-62 NSCLC = test system: HOP-62 NSCLC
SF-539 CNS = test system: SF-539 CNS
NCI-H226 lung = test system: NCI-H226 lung
TK-10 renal = test system: TK-10 renal
SK-MEL-28 melanoma = test system: SK-MEL-28 melanoma
OVCAR-4 ovarian = test system: OVCAR-4 ovarian
RPMI-8226 leukemia = test system: RPMI-8226 leukemia
HCC-2998 colon = test system: HCC-2998 colon
786-0 renal = test system: 786-0 renal
MDA-N = test system: MDA-N
HS 578T breast = test system: HS 578T breast
UACC-62 melanoma = test system: UACC-62 melanoma
SK-MEL-2 melanoma = test system: SK-MEL-2 melanoma
SK-OV-3 ovarian = test system: SK-OV-3 ovarian
SW-620 colon = test system: SW-620 colon
A498 renal = test system: A498 renal
MOLT-4 leukemia = test system: MOLT-4 leukemia
UO-31 renal = test system: UO-31 renal
MALME-3M melanoma = test system: MALME-3M melanoma
HOP-92 NSCLC = test system: HOP-92 NSCLC
SF-268 CNS = test system: SF-268 CNS
OVCAR-8 ovarian = test system: OVCAR-8 ovarian
HCT-15 colon = test system: HCT-15 colon
SF-295 CNS = test system: SF-295 CNS
LOX IMVI melanoma = test system: LOX IMVI melanoma
ACHN renal = test system: ACHN renal
NCI-H460 lung = test system: NCI-H460 lung
CCRF-CEM leukemia = test system: CCRF-CEM leukemia
A549 NSCLC = test system: A549 NSCLC
MDA-MB-231 breast = test system: MDA-MB-231 breast
HCT-116 colon = test system: HCT-116 colon
SK-MEL-5 melanoma = test system: SK-MEL-5 melanoma
SNB-75 CNS = test system: SNB-75 CNS
BT-549 breast = test system: BT-549 breast
KM12 colon = test system: KM12 colon
EKVX NSCLC = test system: EKVX NSCLC
NCI/ADR-RES ovarian = test system: NCI/ADR-RES ovarian
NCI-H23 lung = test system: NCI-H23 lung
CAKI-1 renal = test system: CAKI-1 renal
NCI-H522 lung = test system: NCI-H522 lung
UACC-257 melanoma = test system: UACC-257 melanoma
K-562 leukemia = test system: K-562 leukemia
MCF7 breast = test system: MCF7 breast
SN12C renal = test system: SN12C renal
HL-60(TB) leukemia = test system: HL-60(TB) leukemia
U251 CNS = test system: U251 CNS
IGROV1 ovarian = test system: IGROV1 ovarian
RXF 393 renal = test system: RXF 393 renal
OVCAR-3 ovarian = test system: OVCAR-3 ovarian
DU-145 prostate = test system: DU-145 prostate
SNB-19 CNS = test system: SNB-19 CNS
M14 melanoma = test system: M14 melanoma
SR leukemia = test system: SR leukemia
PC-3 prostate = test system: PC-3 prostate
MDA-MB-435 = test system: MDA-MB-435
HT29 colon = test system: HT29 colon

With `C[C@@]12C(=O)OC(=O)[C@]1(C)[C@H]1CC[C@@H]2O1` the GI50 (OVCAR-5 ovarian) was 1300 nM, the TGI (OVCAR-5 ovarian) was 3460 nM and 7720 nM and the GI50 (T-47D breast) was 1470 nM. The TGI (T-47D breast) was 3140 nM and 4880 nM, the TGI (COLO 205 colon) was 1690 nM and 1010 nM and the GI50 (HOP-62 NSCLC) was 1810 nM. The TGI (HOP-62 NSCLC) was 3340 nM and 5730 nM, the GI50 (SF-539 CNS) was 1620 nM and the TGI (SF-539 CNS) was 3090 nM and 4500 nM. The GI50 (NCI-H226 lung) was 1500 nM, the TGI (NCI-H226 lung) was 2970 nM and the GI50 (TK-10 renal) was 250 nM. The TGI (TK-10 renal) was 608 nM and 792 nM, the GI50 (SK-MEL-28 melanoma) was 1540 nM and the TGI (SK-MEL-28 melanoma) was 3000 nM and 11100 nM. The GI50 (OVCAR-4 ovarian) was 1790 nM, the TGI (OVCAR-4 ovarian) was 3880 nM and 8610 nM and the GI50 (RPMI-8226 leukemia) was 3150 nM. The TGI (RPMI-8226 leukemia) was 18200 nM and 6290 nM, the GI50 (HCC-2998 colon) was 1030 nM and the TGI (HCC-2998 colon) was 3000 nM and 2690 nM. The GI50 (786-0 renal) was 1470 nM, the TGI (786-0 renal) was 2850 nM and 3560 nM and the GI50 (MDA-N) was 1290 nM. For the same compound, the TGI (MDA-N) was 2670 nM and 9020 nM, the GI50 (HS 578T breast) was 1360 nM and 1560 nM and the TGI (HS 578T breast) was 3000 nM and 3290 nM. For the same compound, the GI50 (UACC-62 melanoma) was 1360 nM, the TGI (UACC-62 melanoma) was 2860 nM and 7480 nM and the GI50 (SK-MEL-2 melanoma) was 1260 nM. For the same compound, the TGI (SK-MEL-2 melanoma) was 2770 nM and 3380 nM, the GI50 (SK-OV-3 ovarian) was 1480 nM and the TGI (SK-OV-3 ovarian) was 3360 nM and 5240 nM. For the same compound, the GI50 (SW-620 colon) was 3070 nM, the TGI (SW-620 colon) was 10900 nM and 16600 nM and the GI50 (A498 renal) was 1470 nM. For the same compound, the TGI (A498 renal) was 2840 nM and 2690 nM, the GI50 (MOLT-4 leukemia) was 3880 nM and the TGI (MOLT-4 leukemia) was 18000 nM and 28800 nM. The GI50 (UO-31 renal) was 1510 nM, the TGI (UO-31 renal) was 2850 nM and 7060 nM and the GI50 (MALME-3M melanoma) was 1500 nM. For the same compound, the TGI (MALME-3M melanoma) was 2990 nM and 3080 nM, the GI50 (HOP-92 NSCLC) was 846 nM and the TGI (HOP-92 NSCLC) was 2200 nM and 2960 nM. The GI50 (SF-268 CNS) was 477 nM, the TGI (SF-268 CNS) was 1750 nM and 3850 nM and the GI50 (OVCAR-8 ovarian) was 2100 nM. For the same compound, the TGI (OVCAR-8 ovarian) was 4930 nM and 18000 nM, the GI50 (HCT-15 colon) was 2030 nM and the TGI (HCT-15 colon) was 4700 nM and 13800 nM. For the same compound, the TGI (SF-295 CNS) was 2850 nM and 3220 nM, the GI50 (LOX IMVI melanoma) was 1440 nM and the TGI (LOX IMVI melanoma) was 2890 nM and 6790 nM. The TGI (ACHN renal) was 2430 nM and 2830 nM, the GI50 (NCI-H460 lung) was 2450 nM and the TGI (NCI-H460 lung) was 10300 nM and 9870 nM. For the same compound, the GI50 (CCRF-CEM leukemia) was 1590 nM, the TGI (CCRF-CEM leukemia) was 10800 nM and 7850 nM and the GI50 (A549 NSCLC) was 1090 nM. For the same compound, the TGI (A549 NSCLC) was 2920 nM and 4900 nM, the GI50 (MDA-MB-231 breast) was 1510 nM and the TGI (MDA-MB-231 breast) was 3040 nM and 3240 nM. The TGI (HCT-116 colon) was 4380 nM and 4910 nM, the GI50 (SK-MEL-5 melanoma) was 1100 nM and the TGI (SK-MEL-5 melanoma) was 2330 nM and 2770 nM. For the same compound, the GI50 (SNB-75 CNS) was 698 nM, the TGI (SNB-75 CNS) was 1910 nM and 1560 nM and the TGI (BT-549 breast) was 3060 nM and 3290 nM. The GI50 (KM12 colon) was 1370 nM, the TGI (KM12 colon) was 2760 nM and 17500 nM and the GI50 (EKVX NSCLC) was 556 nM. The TGI (EKVX NSCLC) was 1760 nM and 1900 nM, the GI50 (NCI/ADR-RES ovarian) was 1870 nM and the TGI (NCI/ADR-RES ovarian) was 4940 nM and 25500 nM. The GI50 (NCI-H23 lung) was 2790 nM, the TGI (NCI-H23 lung) was 11400 nM and 20600 nM and the TGI (CAKI-1 renal) was 2110 nM and 2290 nM. The GI50 (NCI-H522 lung) was 1110 nM, the TGI (NCI-H522 lung) was 2430 nM and 3210 nM and the GI50 (UACC-257 melanoma) was 1490 nM. For the same compound, the TGI (UACC-257 melanoma) was 3110 nM and 9630 nM, the GI50 (K-562 leukemia) was 2780 nM and the TGI (K-562 leukemia) was 10100 nM and 8850 nM. The TGI (MCF7 breast) was 2290 nM and 21300 nM, the GI50 (SN12C renal) was 1580 nM and the TGI (SN12C renal) was 3210 nM and 4430 nM. The GI50 (HL-60(TB) leukemia) was 1390 nM, the TGI (HL-60(TB) leukemia) was 3770 nM and 4070 nM and the TGI (U251 CNS) was 2640 nM and 2910 nM. For the same compound, the GI50 (IGROV1 ovarian) was 1800 nM, the TGI (IGROV1 ovarian) was 3820 nM and 7780 nM and the TGI (RXF 393 renal) was 1460 nM and 1700 nM. The GI50 (OVCAR-3 ovarian) was 871 nM, the TGI (OVCAR-3 ovarian) was 2190 nM and 2230 nM and the GI50 (DU-145 prostate) was 1370 nM. For the same compound, the TGI (DU-145 prostate) was 2820 nM and 2810 nM, the GI50 (SNB-19 CNS) was 1230 nM and the TGI (SNB-19 CNS) was 2530 nM and 2830 nM. For the same compound, the TGI (M14 melanoma) was 2870 nM and 3480 nM, the GI50 (SR leukemia) was 6780 nM and the TGI (SR leukemia) was 44900 nM and 15300 nM. For the same compound, the GI50 (PC-3 prostate) was 525 nM, the TGI (PC-3 prostate) was 2020 nM and 1230 nM and the GI50 (MDA-MB-435) was 1620 nM. The TGI (MDA-MB-435) was 3020 nM and 4430 nM and the TGI (HT29 colon) was 3430 nM and 5930 nM.

Source: PubChem BioAssay (NCI)
